Laboratory results from PubChem BioAssay (NCI).
Where “and” joins values, the source holds several entries; their conditions need not be identical. Identical values can stand only once.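 Exposure lasted 48 hours, with cells grown in 96-well plates and compounds tested at five concentrations. The concentration for 50% growth inhibition is given as GI50. The concentration for full growth arrest is given as TGI.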

Assays:
Assay in all cases: NCI-60 cell line screen, 48 h
[1] = system: A549 NSCLC
[2] = system: EKVX NSCLC
[3] = system: HOP-62 NSCLC
[4] = system: HT29 colon
[5] = system: MOLT-4 leukemia
[6] = system: NCI-H522 lung
[7] = system: OVCAR-5 ovarian
[8] = system: SN12C renal
[9] = system: T-47D breast
[10] = system: UO-31 renal

Compound | TGI [1] [µM] | TGI [2] [µM] | TGI [3] [µM] | TGI [4] | TGI [5] | TGI [6] [µM] | TGI [7] [µM] | TGI [8] [µM] | TGI [9] [µM] | TGI [10] [µM] | GI50 [1] [µM] | GI50 [4] [µM] | GI50 [5] [µM] | GI50 [6] [µM] | GI50 [7] [µM] | GI50 [8] [µM] | GI50 [10] [µM] | GI50 [2] [µM] | GI50 [3] [µM] | GI50 [9] [µM]
COc1ccc(Cc2nc3cc(Cl)ccc3o2)cc1 | > 100 | 78.6 | > 100 | > 100 µM | > 100 µM | > 100 | > 100 | > 100 | 91.1 | > 100 |  |  |  |  |  |  |  |  |  | 
CCOc1cc(NC(C)=O)ccc1C(=O)N/N=C/c1ccco1 |  | > 100 | > 100 | > 100 µM | 74.6 µM | > 100 | > 100 | > 100 | > 100 |  |  |  |  |  |  |  |  |  |  | 
C=C1CCCC(C)(C)[C@@H]1CC/C(C)=C/Cn1c2cccc(=O)c-2nc2ccccc21 |  | 11.4 | 9.37 | 27.4 µM and 3.29 µM | 70.7 µM and 9.78 µM | > 100 |  |  |  |  | 20.9 | 3.82 | 5.55 | 6.35 | 27.1 | 5.57 | 3.91 |  |  | 
Cc1ccc2c(=O)c(-c3nnsn3)c[nH]c2n1 | > 100 | > 100 | > 100 | > 100 µM | > 100 µM | > 100 | > 100 | > 100 | > 100 | > 100 |  |  |  |  |  |  |  |  |  | 
COc1cc(/C=C2\N=C(c3ccccc3)N(c3nc4c(Cl)cc(Cl)cc4s3)C2=O)ccc1O | > 100 | > 100 | > 100 | 78.5 µM | 43.3 µM |  | > 100 | 51.4 | 72.6 | 69 |  |  |  |  |  |  |  |  |  | 
CC(Br)C(=O)c1ccc2cc(Br)c3ccccc3c2c1 (configuration not stated) | 39.1 | 28.9 | 32.4 | 31.8 µM |  | 16.7 | 31.4 | 23.3 | 30.5 | 32 |  |  |  |  |  |  |  |  |  | 
Clc1ccc(NCc2nnc(COc3ccc(OCc4nnc(CNc5ccc(Cl)cc5)o4)c(Cl)c3)o2)cc1 | > 100 | > 100 | > 100 | 95.6 µM |  | 46.5 | > 100 | > 100 | > 100 | > 100 |  |  |  |  |  |  |  |  |  | 
NC(CCc1ccccc1)(C(=O)O)c1ccccc1 (configuration not stated) | > 100 | > 100 | > 100 | > 100 µM | > 100 µM | > 100 | > 100 | > 100 | > 100 | > 100 |  |  |  |  |  |  |  |  |  | 
O=P(O)(O)OP(=O)(O)O | > 100 | > 100 | > 100 | > 100 µM | > 100 µM | > 100 | > 100 | > 100 | > 100 | > 100 |  |  |  |  |  |  |  |  |  | 
O=C(N/N=C\c1ccc([N+](=O)[O-])cc1)Nc1ccccc1 |  |  | > 100 | > 100 µM | > 100 µM |  | > 100 | > 100 | > 100 | > 100 |  |  |  |  |  |  |  |  |  | 
CN(C)c1ccc(/C=C2\C[C@H]3[C@@H]4CCC5=CC(=O)CC[C@]5(C)[C@H]4CC[C@]3(C)C2=O)cc1 | > 100 | > 100 | > 100 | > 100 µM | > 100 µM |  | > 100 | > 100 | > 100 | > 100 |  |  |  |  |  |  |  |  |  | 
CN(C)C/C=C(/c1ccc(Br)cc1)c1cccnc1 | > 100 | > 100 | > 100 | > 100 µM | > 100 µM | > 100 | > 100 | > 100 | > 100 | > 100 |  |  |  |  |  |  |  |  |  | 
Cc1cc(O)c2c(c1O)C(=O)c1c(O)ccc(O)c1C2=O | > 100 | > 100 | > 100 | > 100 µM | > 100 µM | > 100 | > 100 | > 100 | > 100 |  |  |  |  |  |  |  |  |  |  | 
COc1cc(/C=C2/C[C@H]3[C@@H]4CCC5=CC(=O)CC[C@]5(C)[C@H]4CC[C@]3(C)NC2=O)cc(OC)c1OC | > 100 | > 100 | > 100 | > 100 µM | > 100 µM | 34 | 57.7 | > 100 | 63 | 26.8 |  |  |  |  |  |  |  |  |  | 
C[C@H](Nc1ccc(C#N)n(C)c1=O)c1cc2cc(Cl)ccc2[nH]c1=O | > 100 | > 100 | > 100 | > 100 µM | 64.1 µM | > 100 | > 100 | > 100 | 94.4 | > 100 | 24.3 | 33.1 | 18.6 | 29.6 | 66.6 | 26.7 | 17.6 | 21.1 | 25.7 | 17.3
CC(C)(C)OC(=O)N1C(C2=COc3ccccc3O2)=COc2cccnc21 | 4.38 | 4.03 | 3.5 | 5.8 µM | 7 µM | 3.49 | 3.4 | 3.37 | 3.45 | 3.1 |  |  |  |  |  |  |  |  |  | 
CCCCCCOC(=O)C(N)Cc1ccc(OC)cc1 (configuration not stated) | > 100 | > 100 | > 100 | > 100 µM | > 100 µM | > 100 | > 100 | > 100 | > 100 | > 100 |  |  |  |  |  |  |  |  |  | 
O=C(COC(c1ccc(F)cc1)c1ccc(F)cc1)N1CCN(CCCc2ccccc2)CC1 | 15.2 | 17.3 | 19.4 | 11.2 µM | > 100 µM | 18.6 | 14.7 | 11.3 | 9.35 | 3.56 |  |  |  |  |  |  |  |  |  | 
